What was measured:
Type in all cases: cell-based
[1] = test system: E. coli DH5α; experiment: Antibacterial activity: MIC and growth curve against E. coli DH5α in 96-well plate; settings: minimal inhibitory concentration against E. coli DH5α; 96-well plate, 5×10^5 CFU/mL, 37° C., judged after 8 h
Summary of the method: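 Log-phase bacteria (OD600 ~0.5) resuspended in LB at 5×10^5 CFU/mL, exposed to recombinant protein at 50, 25, 12.5 μg/mL final in triplicate, 37 °C shaking at 175 rpm. OD600 read every 30 min; MIC is lowest concentration showing no growth.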

[2] = test system: E. coli BL21; experiment: MIC against Gram-negative bacteria: E. coli BL21; settings: for MIC E. coli BL21 / MIC (μg/mL) E. coli BL21: 5×10^5 CFU/mL
Summary of the method: (§1)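 First, colonies from LB agar were grown in LB at 37° C, 185 rpm, to McFarland turbidity 0.5, then centrifuged and resuspended in fresh LB. Next, wells received 5×10^5 CFU/mL bacteria plus two-fold serially diluted EGF domain protein (triplicate). Finally, plates were shaken at 37° C and the no-growth concentration taken as MIC.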

[3] = test system: Pseudomonas aeruginosa; experiment: MIC against Gram-negative bacteria: Pseudomonas aeruginosa; settings: for MIC P. aeruginosa / MIC (μg/mL) P. aeruginosa: 5×10^5 CFU/mL
Summary of the method: as §1

[4] = test system: Klebsiella pneumonia; experiment: MIC against Gram-negative bacteria: Klebsiella pneumonia; settings: for MIC K. pneumonia / MIC (μg/mL) K. pneumonia: 5×10^5 CFU/mL
Summary of the method: as §1

[5] = test system: Enterobacter cloacae; experiment: MIC against Gram-negative bacteria: Enterobacter cloacae; settings: for MIC E. cloacae / MIC (μg/mL) E. cloacae: 5×10^5 CFU/mL
Summary of the method: as §1

[6] = test system: Aeromonas hydrophila; experiment: MIC against Gram-negative bacteria: Aeromonas hydrophila; settings: for MIC A. hydrophila / MIC (μg/mL) A. hydrophila: 5×10^5 CFU/mL
Summary of the method: as §1

[7] = test system: Citrobacter diversus; experiment: MIC against Gram-negative bacteria: Citrobacter diversus; settings: for MIC C. diversus / MIC (μg/mL) C. diversus: 5×10^5 CFU/mL
Summary of the method: as §1

[8] = test system: Moraxella catarrhalis; experiment: MIC against Gram-negative bacteria: Moraxella catarrhalis; settings: for MIC M. catarrhalis / MIC (μg/mL) M. catarrhalis: 5×10^5 CFU/mL
Summary of the method: as §1

[9] = test system: Proteus mirabilis; experiment: MIC against Gram-negative bacteria: Proteus mirabilis; settings: for MIC P. mirabilis / MIC (μg/mL) P. mirabilis: 5×10^5 CFU/mL
Summary of the method: as §1

[10] = test system: Proteus vulgaris; experiment: MIC against Gram-negative bacteria: Proteus vulgaris; settings: for MIC P. vulgaris / MIC (μg/mL) P. vulgaris: 5×10^5 CFU/mL
Summary of the method: as §1

[11] = test system: Serratia marcescens; experiment: MIC against Gram-negative bacteria: Serratia marcescens; settings: for MIC S. marcescens / MIC (μg/mL) S. marcescens: 5×10^5 CFU/mL
Summary of the method: as §1

[12] = E. coli BL21, 10 h cultivation at 37° C.
[13] = P. aeruginosa, 10 h cultivation at 37° C.
[14] = K. pneumonia, 10 h cultivation at 37° C.
[15] = E. cloacae, 10 h cultivation at 37° C.
[16] = A. hydrophila, 10 h cultivation at 37° C.
[17] = C. diversus, 10 h cultivation at 37° C.
[18] = M. catarrhalis, 10 h cultivation at 37° C.
[19] = P. mirabilis, 10 h cultivation at 37° C.
[20] = P. vulgaris, 10 h cultivation at 37° C.
[21] = S. marcescens, 10 h cultivation at 37° C.
[22] = 10 h cultivation at 37° C., two-fold serial dilution

PRT679 (DLNECAKPHLCGDGGFCINFPGHYKCNCYPGYRLKASRPPVCE; listed as Homo sapiens)
MIC [1]: 12.5 µg/mL | MIC E. coli BL21 ([2]; 96-well plate, 37° C., 10 h): 50 µg/mL | MIC P. aeruginosa ([3]; 96-well plate, 37° C., 10 h): 25 µg/mL | MIC K. pneumonia ([4]; 96-well plate, 37° C., 10 h): 25 µg/mL | MIC E. cloacae ([5]; 96-well plate, 37° C., 10 h): 12.5 µg/mL | MIC A. hydrophila ([6]; 96-well plate, 37° C., 10 h): 25 µg/mL | MIC C. diversus ([7]; 96-well plate, 37° C., 10 h): 50 µg/mL | MIC M. catarrhalis ([8]; 96-well plate, 37° C., 10 h): 12.5 µg/mL | MIC P. mirabilis ([9]; 96-well plate, 37° C., 10 h): 25 µg/mL | MIC P. vulgaris ([10]; 96-well plate, 37° C., 10 h): 50 µg/mL | MIC S. marcescens ([11]; 96-well plate, 37° C., 10 h): 25 µg/mL

PRT1003 (STDYCVSAPCFNGGTCVNRPGTFSCLCAMGFQGPRCE; listed as Homo sapiens)
MIC [1]: 50 µg/mL | MIC [2, 12]: 12.5 µg/mL | MIC [3, 13]: 25 µg/mL | MIC [4, 14]: 50 µg/mL | MIC [5, 15]: 25 µg/mL | MIC [6, 16]: 25 µg/mL | MIC [7, 17]: 12.5 µg/mL | MIC [8, 18]: 25 µg/mL | MIC [9, 19]: 50 µg/mL | MIC [10, 20]: 25 µg/mL | MIC [11, 21]: 12.5 µg/mL

PRT186 (STLSCADSPCFNGGSCRERNQGANYACECPPNFTGSNCE; listed as Homo sapiens)
MIC [1]: 12.5 µg/mL | MIC (μg/mL) E. coli BL21 [2, 12]: 50 µg/mL | MIC (μg/mL) P. aeruginosa [3, 13]: 12.5 µg/mL | MIC (μg/mL) K. pneumonia [4, 14]: 25 µg/mL | MIC (μg/mL) E. cloacae [5, 15]: 50 µg/mL | MIC (μg/mL) A. hydrophila [6, 16]: 25 µg/mL | MIC (μg/mL) C. diversus [7, 17]: 12.5 µg/mL | MIC (μg/mL) M. catarrhalis [8, 18]: 25 µg/mL | MIC (μg/mL) P. mirabilis [9, 19]: 12.5 µg/mL | MIC (μg/mL) P. vulgaris [10, 20]: 25 µg/mL | MIC (μg/mL) S. marcescens [11, 21]: 12.5 µg/mL

PRT1129 (PVTNCASSPCQNGGTCLQHTQVSYECLCKPEFTGLTCV; listed as Homo sapiens)
MIC [1]: 50 µg/mL | MIC E. coli BL21 [2, 22]: 12.5 µg/mL | MIC P. aeruginosa [3, 22]: 50 µg/mL | MIC K. pneumonia [4, 22]: 12.5 µg/mL | MIC E. cloacae [5, 22]: 12.5 µg/mL | MIC A. hydrophila [6, 22]: 25 µg/mL | MIC C. diversus [7, 22]: 12.5 µg/mL | MIC M. catarrhalis [8, 22]: 12.5 µg/mL | MIC P. mirabilis [9, 22]: 12.5 µg/mL | MIC P. vulgaris [10, 22]: 12.5 µg/mL | MIC S. marcescens [11, 22]: 12.5 µg/mL

PRT226 (DIDECESGAHQCSEAQTCVNFHGGYRCVDTNRCVEPYIQVSENRCL; listed as Homo sapiens)
MIC [1]: 50 µg/mL | MIC (μg/mL) E. coli BL21 [2, 12]: 25 µg/mL | MIC (μg/mL) P. aeruginosa [3, 13]: 12.5 µg/mL | MIC (μg/mL) K. pneumonia [4, 14]: 25 µg/mL | MIC (μg/mL) E. cloacae [5, 15]: 50 µg/mL | MIC (μg/mL) A. hydrophila [6, 16]: 12.5 µg/mL | MIC (μg/mL) C. diversus [7, 17]: 50 µg/mL | MIC (μg/mL) M. catarrhalis [8, 18]: 12.5 µg/mL | MIC (μg/mL) P. mirabilis [9, 19]: 12.5 µg/mL | MIC (μg/mL) P. vulgaris [10, 20]: 12.5 µg/mL | MIC (μg/mL) S. marcescens [11, 21]: 12.5 µg/mL

PRT64 (PCSSSPCRGGATCALGPHGKNYTCRCPQGYQLDSSQLDCV; listed as Homo sapiens)
MIC [1]: 12.5 µg/mL | MIC (μg/mL) E. coli BL21 ([2]; E. coli BL21, 96-well plate, 37° C., 10 h): 12.5 µg/mL | MIC (μg/mL) P. aeruginosa ([3]; Pseudomonas aeruginosa, 96-well plate, 37° C., 10 h): 50 µg/mL | MIC (μg/mL) K. pneumonia ([4]; Klebsiella pneumonia, 96-well plate, 37° C., 10 h): 25 µg/mL | MIC (μg/mL) E. cloacae ([5]; Enterobacter cloacae, 96-well plate, 37° C., 10 h): 12.5 µg/mL | MIC (μg/mL) A. hydrophila ([6]; Aeromonas hydrophila, 96-well plate, 37° C., 10 h): 25 µg/mL | MIC (μg/mL) C. diversus ([7]; Citrobacter diversus, 96-well plate, 37° C., 10 h): 50 µg/mL | MIC (μg/mL) M. catarrhalis ([8]; Moraxella catarrhalis, 96-well plate, 37° C., 10 h): 25 µg/mL | MIC (μg/mL) P. mirabilis ([9]; Proteus mirabilis, 96-well plate, 37° C., 10 h): 25 µg/mL | MIC (μg/mL) P. vulgaris ([10]; Proteus vulgaris, 96-well plate, 37° C., 10 h): 25 µg/mL | MIC (μg/mL) S. marcescens ([11]; Serratia marcescens, 96-well plate, 37° C., 10 h): 25 µg/mL

From patent US9833497B2, “Human originated EGF domain proteins and use of the same” (CHENGDU SOURCEBIO LIMITED-LIABILITY COMPANY, priority 2013, dated 2017)
